According to patent US12458614B2, “Therapeutic agents for improved mobility and cognitive function and for treating neurodegenerative diseases and lysosomal storage disorders” (priority 2017, dated 2025):

Key:
[1] = test system: Sandhoff disease model, Hexb−/− mouse; assay: Bar crossing test; type: in vivo; details: Sandhoff mice, 0.1 g/kg from 3 weeks of age
Text: This study made use of a mouse model of Sandhoff disease, the Hexb^−/− mouse, as descrbed in Jeyakumar et al. (Jeyakumar, M. et al. (1999) Proc. Natl. Acad. Sci. USA 96: 6388-6393). The bar crossing test is a method for assessing motor function in mice in which the mouse is placed hanging from the centre of a horizontal bar by its front limbs. A wild-type mouse with normal motor function will be able to engage its hind limbs and thereby move to one of the platforms at either end of the bar, and in doing so complete the test. […] In FIG. 7 B, acetyl-leucine treatment of 0.1 g/kg body weight was provided from 3 weeks of age. The acetyl-leucine treated Sandhoff mice retained the ability to complete the test up to 13 weeks of age (inclusive). Data shown is the mean of 6 mice per group. The treated Sandhoff mice retained the ability to complete the test up to 13 weeks of age (inclusive).

[2] = test system: Npc1−/− mice; assay: Observation of coat condition and disease symptoms; type: in vivo, mouse; details: Npc1−/− mice treated from weaning
Text: Separate groups of Npc1^-/- and Npc1^+/+ mice were left untreated, as controls.

[3] = test system: patients with Niemann-Pick Type C (NPC); details: one-month study, 12 NPC patients (Bremova 2015); cited from earlier work
[4] = test system: patient with Spinocerebellar Ataxia (SCA) 1; assay: Case study, Spinocerebellar Ataxia (SCA) 1; type: in vivo, human
[5] = test system: patients with cerebellar ataxia; details: cited from earlier work
[6] = test system: person with postural imbalance and cognitive decline; assay: Case study Example 27; type: in vivo, human
Protocol: The patient was examined clinically by means of the following clinical assessments: maximal distance to walk; timed Up and Go test; Scale for the Assessment and Rating of Ataxia (SARA). The patient was also examined by means of posturography after 1 month of the therapy with Tanganil® 500 mg (2 g upon waking, 1.5 g prior to lunch and 1.5 g prior to the evening meal). Medication was taken 30 minutes prior to the meal, or at least 2 hours after the meal. During treatment with Tanganil® (2 g upon waking, 1.5 g prior to lunch and 1.5 g prior to the evening meal) for 1-month, the following assessments were made: […]

[7] = test system: patients with amyotrophic lateral sclerosis (ALS); assay: Case studies, amyotrophic lateral sclerosis; type: in vivo, human
Text: The results were documented by video.

[8] = test system: person with gait problems and postural imbalance; assay: Case study Example 25, quantitative gait analysis; type: in vivo, human
Protocol: The patient was then treated with Tanganil® (500 mg) in 3 separate doses throughout the day—1 g upon waking, 1 g prior to lunch and 1 g prior to the evening meal for one week, followed by 2 g upon waking, 1.5 g prior to lunch and 1.5 g prior to the evening meal.

[9] = test system: Npc1−/− mouse; assay: Lifespan; type: in vivo; details: 0.1 g/kg from 3 weeks of age
Text: Separate groups of Npc1^−/− and Npc1^+/+ mice were left untreated, as controls.

[10] = test system: patients with multisystemic atrophy cerebellar type (MSA-C); assay: Case studies, multisystemic atrophy cerebellar type; type: in vivo, human
[11] = test system: Mucolipidosis Type II (MLII) patient fibroblasts; assay: Lysosomal volume via LysoTracker; type: cell-based, human; details: 1 mM, 6 days
[12] = ALS Patient 1, after a further 20 days
[13] = ALS Patient 2, after approximately 2 months

In the case of `CC(=O)NC(CC(C)C)C(=O)O` (racemic) [acetyl-DL-leucine], the “Age up to which ability to complete the bar crossing test was retained (inclusive)” value [1] is reported as “up to 13 weeks of age”, the “Motor function and hind-limb mobility/engagement, bar-crossing test” value [1] is reported as “improved motor function and hind-limb mobility/engagement” and the “Delay of discernible disease symptoms vs untreated Npc1−/− littermates” value [2] is reported as “two”. The ataxia symptoms [3] was “symptomatic improvement of ataxia”, the Symptoms ([4]; three weeks on medication, 5 g/day) was “all symptoms significantly improved” and the “Intensity of signs and symptoms after stop” value ([4]; two weeks after medication was stopped) was “the same as before therapy”. For the same compound, the “benefit in degenerative cerebellar ataxia” value ([5]; case series (Pelz 2015)) was “did not find benefit”, the “symptoms of cerebellar ataxia” value ([5]; case series (Strupp 2013)) was “symptomatic improvement of cerebellar ataxia” and the temporal gait variability ([5]; quantitative gait analysis (Schniepp 2015)) was “improved temporal gait variability”. The Subjective measurements ([6]; 1 month on medication) was “more energy, was more agile and interactive”, the SARA ([6]; 1 month on medication, baseline 6.5/40) was 2/40 and the “Mean timed 8-meter-walking test” value ([6]; 1 month on medication, baseline 6.5 sec) was 4.4 s. The Stance up-and-go test ([6]; 1 month on medication, baseline 25.4 sec) was 21.2 s, the “Maximal distance to walk” value ([6]; 1 month, 2 g/1.5 g/1.5 g per day, baseline 1 km) was 1.5 km and the Side effects ([6]; 2 g/1.5 g/1.5 g per day dosage regimen) was “Sleepiness”. The Frequency of falls ([6]; lower dosage 1 g/1 g/1 g for over 4 months) was 0-1 /month, the Falls ([6]; therapy period of 1 month) was “did not record any falls” and the Overall symptoms ([7]; ALS Patient 1) was “improvement in symptoms”. For the same compound, the “Speech after stopping treatment” value ([7]; ALS Patient 1, about 7 days plus 1-2 additional weeks off treatment) was “deterioration of speech”, the “Speech (patient report)” value ([7]; ALS Patient 1, after 15 days, 3 then 5 gram per day) was “significant improvement of speech” and the “Paresis of right foot-dorsiflexors / foot drop” value [7, 12] was “foot drop had improved dramatically”. The “Sleep (patient report)” value [7, 12] was “improvement in sleep”, the “Speech (patient report)” value [7, 12] was “further improvement of speech” and the “Symptomatology after resuming treatment” value ([7]; ALS Patient 1, second resumption) was “improved symptomatology, in particular speech”. For the same compound, the “Motor function of the left hand” value [7, 13] was “progredient deterioration of the motor function of the left hand”, the Swallowing functions [7, 13] was “remained stable” and the “Walking (patient report)” value [7, 13] was “discrete improvement of walking”. The “Symptomatology (patient report)” value ([7]; ALS Patient 3, after one month) was “did not report improvement of symptomatology”, the Symptomatology after suspension ([7]; ALS Patient 4, 10 days after therapy was suspended) was “worsening of symptomatology” and the “Symptomatology (patient report)” value ([7]; ALS Patient 4, after about one month) was “subjective improvement of dysphagia and less hypersalivation”. The Tolerability ([8]; 3 g/day one week then 5 g/day) was “very well tolerated”, the “Gait and imbalance (patient and child report)” value ([8]; 3 weeks after beginning treatment) was “gait and imbalance was significantly improved” and the “% of the time in the gait cycle in which both feet are in contact with the ground” value ([8]; after 3 weeks' treatment) was 25.5%. For the same compound, the Cadence ([8]; after 3 weeks' treatment) was 100 steps/minute, the “Coefficient of variation (CV) of stride time” value ([8]; after 3 weeks' treatment) was 1.8 and the Maximum walking speed ([8]; after 3 weeks' treatment) was 157 cm/s. For the same compound, the Natural walking speed ([8]; after 3 weeks' treatment) was 96 cm/s, the Spreading width ([8]; after 3 weeks' treatment) was 8.1 cm and the Step cycle length ([8]; after 3 weeks' treatment) was 116 cm. For the same compound, the Lifespan [9] was “small but statistically significant increase in lifespan”, the Speech ([10]; MSA-C Patient 1, after one week, 5 g per day) was “significant improvement in speech” and the Dizziness ([10]; MSA-C Patient 2, after 3 weeks) was “substantially improved”. The Falls ([10]; MSA-C Patient 2, after 3 weeks) was “falls completely stopped”, the Gait ([10]; MSA-C Patient 2, after 3 weeks) was “significant improvement of gait” and the “Symptoms after stopping medication” value ([10]; MSA-C Patient 2, one week after first stop) was “deterioration of gait and dizziness”. For the same compound, the “Symptoms after stopping medication” value ([10]; MSA-C Patient 2, two days after second stop) was “progressive deterioration of gait and dizziness”, the “Symptomatology after return to treatment” value ([10]; MSA-C Patient 3) was “symptomatology re-improved” and the “Gait analysis (summary)” value ([10]; MSA-C Patient 3, after one month) was “improvement of gait speed, and reductions of track width and gait fluctuations”. For the same compound, the Symptoms after re-suspension ([10]; MSA-C Patient 3, three weeks after treatment was again suspended) was “deterioration of symptoms, especially dizziness”, the “Symptoms after stopping medication” value ([10]; MSA-C Patient 3, two to three weeks after stopping) was “progressive deterioration of gait and dizziness” and the “LysoTracker fluorescence vs untreated disease fibroblasts” value [11] was “statistically significant reduction in LysoTracker fluorescence toward control level”.
